Legend:
[1] = system: hyperphosphorylated PHF-Tau; test: Hippocampal hyperphosphorylated PHF-Tau in Tg2576 mice subjected to CUMS, binding assay with [125I]-labeled AT8 antibody; type: in vivo; conditions: 15 months-old Tg2576 mice, 3 months of CUMS, treated during CUMS; compounds 10 mg/kg/d
[2] = system: angiotensin II AT2 receptor (AT2R, AGTR2); test: AT2R protein aggregation assay in HEK cells, immunoblot; type: cell-based, human; conditions: 10 microM for 72 h
Method: Proteins were also extracted from yeast cells and HEK cells expressing the indicated protein (i.e. HBsAg or AGTR2) as described above. Neuronal cell loss and hyperphosphorylated Tau in hippocampi of 15 months-old Tg2576 mice subjected to the CUMS protocol for 3 months was determined with crude homogenates of dissected hippocampi by direct binding assay with neuron-specific [^125I]-labeled anti-NeuN antibody (MAB377, clone A60, EMD Millipore, Merck KGaA, Darmstadt, Germany) and [^125I]-labeled AT8 antibody similarly as described (AbdAlla et al., J. Biol. Chem. 284, 6554-6565 (2009)).
In the second non-Abeta-based protein aggregation assay, different plant extracts were tested in a mammalian cell system, which analyzed the protein aggregation of the angiotensin II AT2 receptor (AT2R, AGTR2) protein in human embryonic kidney (HEK) cells. The system has physiological relevance because this cellular system is capable to reproduce AT2R protein aggregation, which also occurs in brains of AD patients and AD animal models (AbdAlla et al., J. Biol. Chem. 284, 6554-6565 (2009); AbdAlla et al., J. Biol. Chem. 284, 6566-6574 (2009)). The AT2 receptor in human embryonic kidney (HEK) cells forms stable dimers/oligomers under pro-oxidant conditions, which are resistant to urea-containing reducing SDS-PAGE (FIG. 2A, and AbdAlla et al., J. Biol. Chem. 284, 6566-6574 (2009)). […]

[3] = system: synaptosomal nerve-associated protein 25 (Snap25); test: Whole genome microarray gene expression analysis of aortic genes: Snap25; type: in vivo; conditions: ApoE-/- mice, 10 mg/kg/day for 8 months
Method: Whole genome microarray gene expression profiling was performed with aortic specimens isolated from 9-month-old ApoE−/− mice without treatment and with oral treatment for 8 months with alizarin (10 mg/kg/day), and untreated age-matched B6 control mice. Total RNA was isolated by the RNeasy Mini kit according to the protocol of the manufacturer (Qiagen). RNA purity was between 1.8 and 2 as determined by the absorbance ratio of 260/280. RNA quality and absence of signs of degradation were also controlled by RNA electrophoresis on a denaturing agarose gel by the presence of bright bands of 28S and 18S ribosomal RNA. Total RNA was processed for whole genome microarray gene expression profiling with the GeneChip One-Cycle Target Labeling System (Affymetrix) according to the protocol of the manufacturer (Affymetrix GeneChip Expression Analysis Technical Manual Rev. 5). […]
Alzheimer's Disease (AD) is the most frequent form of dementia in the elderly. […] Atherosclerotic lesion area was assessed with oil red O-stained aortas isolated from 9-month-old ApoE−/− mice (FIG. 17A). […] The aortic expression levels of neuronal marker genes of alizarin-treated ApoE−/− mice were determined compared to untreated ApoE−/− mice and untreated B6 mice without atherosclerosis (FIG. 17D,E).

## O=C1c2ccccc2C(=O)c2c1ccc(O)c2O [Compound-1, 1,2-dihydroxyanthraquinone]
[1]
  hippocampal content of hyperphosphorylated PHF-Tau: significantly decreased hippocampal content of hyperphosphorylated PHF-Tau
[2]
  aggregation of the AT2 receptor: inhibited the aggregation of the AT2 receptor
[3]
  aortic expression level of Snap25: not down-regulated and maintained at the levels of the non-transgenic B6 controls
